From paper PMC7594077, “An Alcohol Dehydrogenase 3 (ADH3) from Entamoeba histolytica Is Involved in the Detoxification of Toxic Aldehydes” (Microorganisms, 2020)

Key:
recEhADH3B^b = biological target: T1, recEhADH3B^b (Entamoeba histolytica, UniProt C4M6R1); test: NADPH oxidation at […] nm, Michaelis-Menten; type: biochemical; settings: 0.7 mM NADPH, pH 7.4, EDTA-treated and dialysed enzyme incubated with 1 mM Ni2+; reduction direction
T1 construct: gene EHI_088020; E. coli BL21(DE3); dimer; EDTA-stripped and reloaded with Ni2+
T1 sequence (C4M6R1 1-382): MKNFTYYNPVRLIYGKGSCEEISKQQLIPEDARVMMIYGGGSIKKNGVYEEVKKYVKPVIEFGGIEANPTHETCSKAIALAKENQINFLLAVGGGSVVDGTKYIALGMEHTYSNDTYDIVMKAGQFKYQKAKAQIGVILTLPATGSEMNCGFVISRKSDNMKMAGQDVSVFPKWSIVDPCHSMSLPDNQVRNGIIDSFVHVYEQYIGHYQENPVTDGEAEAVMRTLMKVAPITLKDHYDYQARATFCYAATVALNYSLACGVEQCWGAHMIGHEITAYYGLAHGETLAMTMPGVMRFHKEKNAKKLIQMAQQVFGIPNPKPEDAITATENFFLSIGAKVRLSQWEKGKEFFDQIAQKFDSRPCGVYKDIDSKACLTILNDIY

[1] = biological target: recombinant EhADH3B^b (alcohol dehydrogenase 3B of Entamoeba histolytica) (Entamoeba histolytica); test: SEC; HiLoad 16/60 Superdex prep grade column; 50 mM Tris, 150 mM NaCl, 10 mM EDTA, 1 mM DTT, 10% glycerol, pH 8.0; elution peak at 82 mL compared with standard proteins

CC=O [acetaldehyde]
Km (recEhADH3B^b): 30.84 [95% CI 16.21–60.54] mM

recombinant EhADH3B^b (alcohol dehydrogenase 3B of Entamoeba histolytica) (enzyme)
stoichiometry N [1]: 2

C=O [formaldehyde]
Km (recEhADH3B^b): 63.7 [95% CI 25.3 to 267.4] mM
